The values below come from patent US20240285555A1, “COMPOSITIONS FOR THE TREATMENT OF COPPER DEFICIENCY AND METHODS OF USE” (priority 2018, published 2024).

Test [1] has as its system CcO-containing mitochondrial respiratory chain supercomplexes. The test can be described thus: Assembly and activity of CcO-containing supercomplexes (native PAGE blotting, in-gel activity). Particulars: 20 nM ES, YP galactose medium. In kind it is cell-based, Saccharomyces cerevisiae. How it is done:
FIGS. 2A, 2B, 2C, 2D and 2E illustrate elesclomol supplementation rescues CcO assembly defects by restoring mitochondrial copper levels of yeast S. cerevisiae coa6Δ cells. FIGS. 2A-2C illustrate bioenergetic parameters of wild type (WT), coa6Δ, and coa6Δ cells supplemented with 20 nM ES were cultured in YP galactose medium until early stationary growth phase. […] Error bars represent mean±SD (n=3, two-tailed unpaired Student's t-test *p<0.05, **p<0.005).
Immunoblotting and In-gel Activities. Sodium dodecyl sulfate polyacrylamide gel electrophoresis (SDS-PAGE) and Blue Native PAGE (BN-PAGE) were performed to separate denatured and native protein complexes, respectively. For SDS-PAGE, mitochondrial lysate ([…]) was separated on NuPAGE 4-12% Bis-Tris gels (Life Technologies, Carlsbad, CA). For BN-PAGE, yeast mitochondria were solubilized in buffer containing 1% digitonin (Life Technologies) by incubating for 15 min at 4° C. […]
A number of copper-binding pharmacological agents were tested for their ability to rescue respiratory deficient growth of coa6Δ cells. […] To determine the biochemical basis for the observed respiratory rescue of coa6Δ cells, the assembly and activity of CcO-containing mitochondrial respiratory chain supercomplexes was measured by native-polyacrylamide gel electrophoresis blotting and in-gel activity assay, respectively. […]

In test [2] the test system is coa6Δpic2Δ cells. The test can be described thus: Respiratory growth rescue of coa6Δpic2Δ yeast. In kind it is cell-based, Saccharomyces cerevisiae. Conditions: ES supplementation.
Method: Yeast Strains and Culture Conditions. The authenticity of yeast strains was confirmed by PCR as well as by replica plating on dropout plates. Yeast cells were cultured in standard YP growth media including YPD (1% yeast extract, 2% peptone and 2% glucose), YPGal (2% galactose), YPGE (3% glycerol+1% ethanol), or synthetic media (SC glucose). For qualitative growth measurement, 10-fold serial dilutions of overnight cultures were spotted on YPD or YPGE plates and incubated at 30° C. and 37° C. for the indicated period. Growth in liquid media was measured spectrophotometrically at 600 nm.
To further corroborate that ES increases mitochondrial copper levels by actively transporting extracellular copper into the cells, copper availability in the extracellular compartment was decreased by co-treatment of ES with a known copper chelator, bathocuproine disulfonate (BCS). […] To determine whether ES is able to bypass a mitochondrial copper transporter, Pic2, ES supplementation in pic2Δ and coa6Δpic2Δ cells was performed.
Test [3] relates to Ctr1^−/− zebrafish. The test can be described thus: Cox1 levels in mitochondrial extracts of Ctr1 mutant zebrafish. In kind it is in vivo. Conditions: grown in the presence of ES until 10 dpf. The procedure:
Zebrafish Experiments. […] Morpholino-based experiments were performed.
ES Supplementation Rescues Copper Deficiency Phenotypes in Zebrafish Models. To determine whether ES can rescue phenotypes associated with copper deficiency in an intact developing vertebrate animal model, zebrafish embryos with a null mutation in the gene encoding the plasma membrane copper importer Ctr1 were utilized. Zebrafish were chosen because of the ability to quickly monitor the pigmentation defect that arises due to the copper requirement of tyrosinase, an enzyme that catalyzes the critical step in melanin biosynthesis. Wild type zebrafish embryos have a characteristic melanin pigmentation pattern visible at 48 hpf. To determine if ES can rescue copper deficiency phenotypes in zebrafish, zebrafish embryos from heterozygous Ctr1 crosses in 10 nM ES were incubated and compared to untreated embryos. […] To determine whether ES can rescue the observed CcO assembly defect, clutches of embryos were grown from heterozygous Ctr1 crosses in the presence of ES until 10 dpf and levels of Cox1 in their mitochondrial extracts were measured.

In test [4] the test system is mottled-brindled (mo-br) mouse. Kind of test: Survival of Menkes (mo-br) mice after subcutaneous injections. In kind it is in vivo. How it is done: Kaplan-Meier Survival of mice after subcutaneous injections of ES-Cu(II) on postnatal days 7 and 10. Log-Rank statistical analysis was conducted to assess significance of survival among mo-br mice cohorts. Mo-br mice treated with 3.625 mg/kg/dose.
FIG. 8 illustrates mean body weight gain of mice after subcutaneous injections on postnatal days 7 and 10. Cohorts and number of mice/cohort are designated as follows: WT vehicle (n=13), WT Cu(II)-ES (n=12), mo-br vehicle (n=9), mo-br Cu(II)-ES (n=27), mo-br Cu(II)-2His (n=6), and mo-br ES (n=6). Growth curves are reported as the mean of each cohort±SD measured weekly.
To evaluate the potential of Cu(II)-ES in a mouse model of human copper deficiency disorder, the well-characterized mottled-brindled (mo-br) mouse model (C57BL/6-Atp7a^mo-br/J, Jackson Laboratory Stock #002566) that closely mimics the clinical and biochemical phenotypes of Menkes disease was chosen. Like in humans, these mice are characterized by mutation in ATP7a, which is an X-linked gene and therefore its mutation only affects males.

Where only a bound is given, the exact number is not on record here.

For the compound `CN(NC(=O)CC(=O)NN(C)C(=S)c1ccccc1)C(=S)c1ccccc1` [ES, elesclomol], the “abundance and activity of CcO-containing supercomplexes” value in test [1] was “restored the abundance and activity of CcO-containing supercomplexes to near wild type levels”. Moreover, the “rescue of respiratory growth” value in test [2] is reported as “did rescue”. The “Cox1 levels in mitochondrial extracts” value in test [3] is given as “almost completely rescued”. In test [4] (mouse, in vivo), this compound had a mean survival time of 17.0 ± 0.9 days. The “weekly time point by which all mice of the cohort had expired” value in test [4] (subcutaneous, postnatal days 7 and 10) is no more than 2 week.
